From US9266844B2 (priority 2012, dated 2016)
“Also recorded” adds a separate entry of the source. Read-outs that look alike come from different tables or passages of the source.

Tests used:
[1] = molecular target: MoMLV Reverse Transcriptase (Moloney murine leukemia virus, UniProt P03355); assay type: biochemical
[2] = test system: RNA pol II/CMV promoter; assay type: cell-based
[3] = molecular target: T1, nsp13 (Severe acute respiratory syndrome coronavirus, UniProt P0C6X7); assay: biochemical; assay type: biochemical, SARS-CoV
[4] = test system: SARS-CoV replicon; assay: microbe, parasite or virus in culture; assay type: cell-based; conditions: read-out: EC50 Replicon (RT-qPCR)
[5] = test system: HEK293T cells
[6] = test system: HEK 293T cells
[7] = molecular target: Klenow fragment of E. coli DNA polymerase I (KF) (Escherichia coli, UniProt P00582); assay type: biochemical
[8] = molecular target: WT-nsp13 (Severe acute respiratory syndrome coronavirus, UniProt P0C6X7); assay: biochemical
[9] = molecular target: Dengue virus NS3 helicase (Dengue virus type 2, UniProt P14340); assay type: biochemical
[10] = test system: dsDNA (31/18-mer); assay type: binding
[11] = molecular target: FMDV 3Dpol (Foot-and-mouth disease virus serotype O, UniProt P03305); assay type: biochemical
[12] = molecular target: T1, nsp13; assay type: biochemical, SARS-CoV
[13] = molecular target: SARS-CoV nsp13 helicase (Severe acute respiratory syndrome coronavirus, UniProt P0C6X7); assay: biochemical
[14] = molecular target: T1, nsp13; assay type: binding, SARS-CoV
[15] = molecular target: HCV NS3h helicase (Hepatitis C virus genotype 1a, UniProt P27958); assay type: biochemical
[16] = test system: SARS-CoV replicon; assay type: cell-based
[17] = in vitro; conditions: human

Sequence of Klenow fragment of E. coli DNA polymerase I (KF) (P00582 324-928): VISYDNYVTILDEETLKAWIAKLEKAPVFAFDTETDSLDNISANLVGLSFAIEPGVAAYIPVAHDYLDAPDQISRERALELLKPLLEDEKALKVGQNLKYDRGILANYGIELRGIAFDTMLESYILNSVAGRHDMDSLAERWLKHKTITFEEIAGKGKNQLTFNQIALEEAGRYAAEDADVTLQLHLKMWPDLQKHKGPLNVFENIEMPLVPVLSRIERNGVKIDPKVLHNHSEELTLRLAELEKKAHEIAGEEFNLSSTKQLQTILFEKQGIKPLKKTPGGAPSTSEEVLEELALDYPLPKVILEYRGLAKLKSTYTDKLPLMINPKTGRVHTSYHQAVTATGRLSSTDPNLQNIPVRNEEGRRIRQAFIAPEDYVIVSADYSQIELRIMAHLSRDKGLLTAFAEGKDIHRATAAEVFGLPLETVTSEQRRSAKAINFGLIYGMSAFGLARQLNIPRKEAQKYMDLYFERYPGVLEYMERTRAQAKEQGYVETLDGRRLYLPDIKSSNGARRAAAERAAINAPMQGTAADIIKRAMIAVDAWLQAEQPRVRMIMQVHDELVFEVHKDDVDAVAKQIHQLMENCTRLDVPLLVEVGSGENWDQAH
Sequence of HCV NS3h helicase (P27958 1193-1657 limits assumed): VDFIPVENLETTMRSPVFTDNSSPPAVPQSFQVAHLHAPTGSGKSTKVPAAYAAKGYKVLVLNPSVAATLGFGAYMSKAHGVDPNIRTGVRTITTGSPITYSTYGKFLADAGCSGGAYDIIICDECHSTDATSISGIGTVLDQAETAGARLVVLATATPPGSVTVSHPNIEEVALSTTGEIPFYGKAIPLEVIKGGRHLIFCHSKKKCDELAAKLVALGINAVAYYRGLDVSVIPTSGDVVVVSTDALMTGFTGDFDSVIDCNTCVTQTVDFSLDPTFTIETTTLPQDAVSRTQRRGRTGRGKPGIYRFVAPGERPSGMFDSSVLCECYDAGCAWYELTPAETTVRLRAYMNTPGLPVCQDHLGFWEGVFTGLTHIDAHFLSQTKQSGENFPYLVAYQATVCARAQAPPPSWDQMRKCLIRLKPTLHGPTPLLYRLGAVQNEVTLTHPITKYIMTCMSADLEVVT
Sequence of FMDV 3Dpol (P03305 1863-2332 limits assumed): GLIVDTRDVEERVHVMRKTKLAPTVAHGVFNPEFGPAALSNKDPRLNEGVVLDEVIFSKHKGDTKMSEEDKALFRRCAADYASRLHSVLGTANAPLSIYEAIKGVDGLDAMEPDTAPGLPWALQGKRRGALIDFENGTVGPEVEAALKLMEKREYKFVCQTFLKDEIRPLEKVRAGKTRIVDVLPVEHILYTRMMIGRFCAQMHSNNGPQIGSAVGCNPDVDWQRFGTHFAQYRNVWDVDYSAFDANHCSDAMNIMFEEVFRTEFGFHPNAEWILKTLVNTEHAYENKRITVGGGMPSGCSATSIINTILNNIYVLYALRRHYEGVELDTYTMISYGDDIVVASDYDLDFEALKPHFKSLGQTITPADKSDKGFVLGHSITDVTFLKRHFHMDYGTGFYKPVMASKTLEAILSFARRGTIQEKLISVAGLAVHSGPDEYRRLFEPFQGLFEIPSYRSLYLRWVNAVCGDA
Sequence of Dengue virus NS3 helicase (P14340 1476-2093 limits assumed): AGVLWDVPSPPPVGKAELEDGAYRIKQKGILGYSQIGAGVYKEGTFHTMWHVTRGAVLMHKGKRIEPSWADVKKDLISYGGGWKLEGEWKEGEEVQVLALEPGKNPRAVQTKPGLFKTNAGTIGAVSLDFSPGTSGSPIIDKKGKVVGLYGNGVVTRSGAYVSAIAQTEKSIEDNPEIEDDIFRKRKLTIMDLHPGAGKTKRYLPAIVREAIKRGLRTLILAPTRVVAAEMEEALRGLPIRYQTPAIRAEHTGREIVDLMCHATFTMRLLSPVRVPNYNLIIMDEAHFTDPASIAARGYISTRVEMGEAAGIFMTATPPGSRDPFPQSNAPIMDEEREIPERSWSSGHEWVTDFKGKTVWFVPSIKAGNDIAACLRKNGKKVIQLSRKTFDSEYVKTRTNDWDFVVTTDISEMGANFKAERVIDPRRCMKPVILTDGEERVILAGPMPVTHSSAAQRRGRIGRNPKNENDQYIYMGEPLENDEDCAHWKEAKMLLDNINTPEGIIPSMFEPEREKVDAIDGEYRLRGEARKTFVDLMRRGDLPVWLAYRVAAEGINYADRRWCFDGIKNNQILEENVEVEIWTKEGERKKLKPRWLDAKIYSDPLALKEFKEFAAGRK

## C=CCn1c(S)nnc1CSc1ccccc1[N+](=O)[O-] [SSYA10-001, 3-[(2-nitrophenyl)sulfanylmethyl]-4-prop-2-enyl-1H-1,2,4-triazole-5-thione]
[1]
  inhibition of MoMLV Reverse Transcriptase: did not cause inhibition
[2]
  amount of RNA synthesized in NRC-transfected cells with vs without compound: No difference was observed
[3]
  Ki: 6 ± 1.7 µM
  mode of inhibition with respect to ATP and nucleic acid substrates: non-competitive
[4]; Severe acute respiratory syndrome coronavirus, HEK-293T, 48 h
  EC50: 8.95 µM
[4]
  EC50: ~9 µM
[5]
  cytotoxicity at 250 μM: No cytotoxicity was observed
[6]
  cytostatic effect (cell proliferation): did not interfere with the proliferation
[7]
  effect on KF polymerization and strand displacement (nucleic acid binding of the substance): did not prevent
  inhibition of KF polymerase: did not cause inhibition
[8]
  IC50: 6 µM
[9]
  inhibition of Dengue virus NS3 helicase activity: specific for SARS-CoV helicase
[10]
  change of pico green fluorescent counts with dsDNA: did not change
[11]
  inhibition of FMDV 3Dpol polymerase: did not cause inhibition
[12]
  effect on ATP hydrolysis by nsp13: did not affect
[13]; IC50 DNA (nsp13 unwinding)
  IC50: 5.3 ± 2 µM
[13]; IC50 RNA (nsp13 unwinding)
  IC50: 5.7 ± 2.3 µM
[13]; IC50 SARS-CoV RNA (nsp13 unwinding)
  IC50: 5.6 ± 0.5 µM
[13]; read-out: inhibition of the helicase activity
  inhibition at 20 µM: ~100%
[14]
  effect on nsp13 binding to DNA: did not affect
[15]
  inhibition of HCV NS3h helicase activity: did not inhibit; also recorded: specific for SARS-CoV helicase
[16]
  effect on SARS-CoV replication (RNase protection assay): interfered with SARS-CoV replication
[17]
  CC50: > 250 µM
